From ChEMBL document CHEMBL1177645, “Crystallographic and docking studies of purine nucleoside phosphorylase from Mycobacterium tuberculosis” (Bioorg Med Chem, 2010)

Biological target: T1, Purine nucleoside phosphorylase (Mycobacterium tuberculosis, UniProt P9WP01)
T1 sequence (P9WP01 whole entry): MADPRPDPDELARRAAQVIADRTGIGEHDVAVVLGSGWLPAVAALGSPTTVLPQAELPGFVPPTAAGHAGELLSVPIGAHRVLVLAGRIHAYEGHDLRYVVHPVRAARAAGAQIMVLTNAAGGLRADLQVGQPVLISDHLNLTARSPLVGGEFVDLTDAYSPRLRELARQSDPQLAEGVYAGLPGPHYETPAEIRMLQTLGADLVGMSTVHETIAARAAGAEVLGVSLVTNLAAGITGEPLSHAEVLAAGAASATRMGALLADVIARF
Experiment: Binding affinity to Mycobacterium tuberculosis purine nucleoside phosphorylase by spectrophotometric analysis

Row | SMILES | Kd
1 | CSc1ncnc2c1ncn2[C@@H]1O[C@H](CO)[C@@H](O)[C@H]1O | 12.6 µM
2 | O=c1[nH]c(=O)c2c[nH]nc2[nH]1 [OXYPURINOL] | 794 µM
3 | Sc1ncnc2nc[nH]c12 [MERCAPTOPURINE ANHYDROUS] | 79.4 µM
4 | Nc1nc2c(ncn2COCCO)c(=O)[nH]1 [ACYCLOVIR] | 12.6 µM
5 | Nc1nc(O)c2ncn(COC(CO)CO)c2n1 [GANCICLOVIR] | 15.8 µM
6 | CSc1nc(N)nc2[nH]cnc12 | 316 µM
7 | Oc1ncnc2[nH]ncc12 [ALLOPURINOL] | 1000 µM
